From patent US7049138B2, “Epitope-tagged beta-amyloid precursor protein and DNA encoding the same” (Bristol-Myers Squibb Company, priority 1999, dated 2006)

System: HA 11 A-beta (1-40) accumulation in HEK 293/HA 11 beta-APP 695 cells
Assay: Accumulation of HA 11 A-beta (1-40) in HEK 293/HA 11 beta-APP 695 conditioned medium, position 40-specific ELISA
Type: cell-based, human
Conditions: 96-well, serum-free medium with 0.2% BSA, 16 hours, dose-response, versus DMSO vehicle
Protocol: HEK 293/HA 11 beta-APP 695 cells were plated at confluence in 96-well plates and the indicated dose-response of either MDL 28170 (panel A), or Brefeldin A (panel B) was added for 16 hours. The accumulation of HA 11 A-beta (1-40) (position 40-specific antibody; QCB) was determined as in FIG. 5. Results are expressed as percentage inhibition of HA 11 A-beta (1-40) accumulation in comparison to wells incubated with vehicle (dimethyl sulfoxide, DMSO) alone.
Panel A: Immulon 2 microtiter wells were coated with mAB anti-HA 11 (5 μg/mL in PBS, 4° C., overnight), washed with PBS and blocked with 5% BSA in PBS. […] The change of absorbance of duplicate wells was determined at […] and results corrected for binding of antibodies to wells in the absence of peptide. […]
HEK 293/HA 11 beta-APP 695 cells were plated in 96-well tissue culture dishes in serum-free medium containing 0.2% BSA (1×10^6 cells/cm^2). The conditioned medium was harvested at the indicated times and analyzed for the presence of HA 11 A-beta position 40, as in example 4. HA 11 A-beta polypeptides ending at position 42 were detected in a similar ELISA system. […] Bound HA 11 A-beta 42 was detected with biotin-labeled mAB 108 (specific for the neo-epitope generated upon cleavage of beta-APP by […]), followed by HRP-labeled streptavidin and TMB substrate. […]

Compound | HA 11 A-beta accumulation in conditioned medium
C[C@H]1CCC/C=C/[C@@H]2C[C@H](O)C[C@H]2[C@H](O)/C=C/C(=O)O1 [brefeldin A, Brefeldin A] | decrease in the HA 11 A-beta accumulation
MDL 28170 | decrease in the HA 11 A-beta accumulation
